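Method: 48-hour compound exposure of cells in 96-well plates, five concentrations, linear interpolation of endpoints. At the GI50, growth is halved. TGI: concentration producing complete growth inhibition.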
Experiments:
Test in all cases: growth of human tumour cells (NCI), 48 h
786-0 renal = test system: 786-0 renal
A498 renal = test system: A498 renal
A549 NSCLC = test system: A549 NSCLC
ACHN renal = test system: ACHN renal
BT-549 breast = test system: BT-549 breast
CAKI-1 renal = test system: CAKI-1 renal
CCRF-CEM leukemia = test system: CCRF-CEM leukemia
COLO 205 colon = test system: COLO 205 colon
DU-145 prostate = test system: DU-145 prostate
EKVX NSCLC = test system: EKVX NSCLC
HCC-2998 colon = test system: HCC-2998 colon
HCT-116 colon = test system: HCT-116 colon
HCT-15 colon = test system: HCT-15 colon
HL-60(TB) leukemia = test system: HL-60(TB) leukemia
HOP-62 NSCLC = test system: HOP-62 NSCLC
HOP-92 NSCLC = test system: HOP-92 NSCLC
HS 578T breast = test system: HS 578T breast
IGROV1 ovarian = test system: IGROV1 ovarian
K-562 leukemia = test system: K-562 leukemia
LOX IMVI melanoma = test system: LOX IMVI melanoma
M14 melanoma = test system: M14 melanoma
MCF7 breast = test system: MCF7 breast
MDA-MB-231 breast = test system: MDA-MB-231 breast
MDA-MB-435 = test system: MDA-MB-435
MOLT-4 leukemia = test system: MOLT-4 leukemia
NCI-H226 lung = test system: NCI-H226 lung
NCI-H23 lung = test system: NCI-H23 lung
NCI-H460 lung = test system: NCI-H460 lung
NCI-H522 lung = test system: NCI-H522 lung
NCI/ADR-RES ovarian = test system: NCI/ADR-RES ovarian
OVCAR-3 ovarian = test system: OVCAR-3 ovarian
OVCAR-5 ovarian = test system: OVCAR-5 ovarian
OVCAR-8 ovarian = test system: OVCAR-8 ovarian
PC-3 prostate = test system: PC-3 prostate
RPMI-8226 leukemia = test system: RPMI-8226 leukemia
RXF 393 renal = test system: RXF 393 renal
SF-268 CNS = test system: SF-268 CNS
SF-295 CNS = test system: SF-295 CNS
SF-539 CNS = test system: SF-539 CNS
SK-MEL-2 melanoma = test system: SK-MEL-2 melanoma
SK-MEL-28 melanoma = test system: SK-MEL-28 melanoma
SK-MEL-5 melanoma = test system: SK-MEL-5 melanoma
SN12C renal = test system: SN12C renal
SNB-19 CNS = test system: SNB-19 CNS
SNB-75 CNS = test system: SNB-75 CNS
SR leukemia = test system: SR leukemia
SW-620 colon = test system: SW-620 colon
T-47D breast = test system: T-47D breast
TK-10 renal = test system: TK-10 renal
UACC-257 melanoma = test system: UACC-257 melanoma
UACC-62 melanoma = test system: UACC-62 melanoma
UO-31 renal = test system: UO-31 renal

For `COc1ccc2c(c1)C=CC1C2CC[C@]2(C)C(NC(=O)/C=C/c3ccc(O)c(O)c3)CCC12` (some centres undefined), the GI50 (786-0 renal) was 2.9 µM, the TGI (786-0 renal) was 15.7 µM and the GI50 (A498 renal) was 19.9 µM. For the same compound, the TGI (A498 renal) was 53.6 µM, the GI50 (A549 NSCLC) was 11.4 µM and the TGI (A549 NSCLC) was 29.5 µM. It also gave a GI50 (ACHN renal) of 7.5 µM, a TGI (ACHN renal) of 19.8 µM and a GI50 (BT-549 breast) of 19.6 µM. The TGI (BT-549 breast) was 56.9 µM, the GI50 (CAKI-1 renal) was 7.1 µM and the TGI (CAKI-1 renal) was 24.7 µM. The GI50 (CCRF-CEM leukemia) was 4.36 µM, the TGI (CCRF-CEM leukemia) was 19.5 µM and the GI50 (COLO 205 colon) was 2.61 µM. It also gave a TGI (COLO 205 colon) of 7.75 µM, a GI50 (DU-145 prostate) of 16.1 µM and a TGI (DU-145 prostate) of 39.6 µM. It also gave a GI50 (EKVX NSCLC) of 18.8 µM, a TGI (EKVX NSCLC) of 56.5 µM and a GI50 (HCC-2998 colon) of 14.4 µM. For the same compound, the TGI (HCC-2998 colon) was 34.6 µM, the GI50 (HCT-116 colon) was 4.49 µM and the TGI (HCT-116 colon) was 17.4 µM. For the same compound, the GI50 (HCT-15 colon) was 3.05 µM, the TGI (HCT-15 colon) was 13.3 µM and the GI50 (HL-60(TB) leukemia) was 5.01 µM. It also gave a TGI (HL-60(TB) leukemia) of 23.8 µM, a GI50 (HOP-62 NSCLC) of 1.21 µM and a TGI (HOP-62 NSCLC) of 7.59 µM. The GI50 (HOP-92 NSCLC) was 10.6 µM, the TGI (HOP-92 NSCLC) was 26.5 µM and the GI50 (HS 578T breast) was 27.2 µM. For the same compound, the TGI (HS 578T breast) was over 100 µM, the GI50 (IGROV1 ovarian) was 5.93 µM and the TGI (IGROV1 ovarian) was 24.7 µM. It also gave a GI50 (K-562 leukemia) of 13.9 µM, a TGI (K-562 leukemia) of 49.6 µM and a GI50 (LOX IMVI melanoma) of 6.45 µM. It also gave a TGI (LOX IMVI melanoma) of 20.2 µM, a GI50 (M14 melanoma) of 13.7 µM and a TGI (M14 melanoma) of 30.8 µM. It also gave a GI50 (MCF7 breast) of 6.28 µM, a TGI (MCF7 breast) of 20.8 µM and a GI50 (MDA-MB-231 breast) of 12.1 µM. The TGI (MDA-MB-231 breast) was 25.9 µM, the GI50 (MDA-MB-435) was 14.7 µM and the TGI (MDA-MB-435) was 36.6 µM. The GI50 (MOLT-4 leukemia) was 5.56 µM, the TGI (MOLT-4 leukemia) was 22.7 µM and the GI50 (NCI-H226 lung) was 15.3 µM. For the same compound, the TGI (NCI-H226 lung) was 41.3 µM, the GI50 (NCI-H23 lung) was 16.3 µM and the TGI (NCI-H23 lung) was 38.3 µM. For the same compound, the GI50 (NCI-H460 lung) was 3.93 µM, the TGI (NCI-H460 lung) was 14.4 µM and the GI50 (NCI-H522 lung) was 3.41 µM. It also gave a TGI (NCI-H522 lung) of 10.9 µM, a GI50 (NCI/ADR-RES ovarian) of 11.8 µM and a TGI (NCI/ADR-RES ovarian) of 33.5 µM. It also gave a GI50 (OVCAR-3 ovarian) of 7.19 µM, a TGI (OVCAR-3 ovarian) of 27.8 µM and a GI50 (OVCAR-5 ovarian) of 20.1 µM. It also gave a TGI (OVCAR-5 ovarian) of 38.9 µM, a GI50 (OVCAR-8 ovarian) of 14.2 µM and a TGI (OVCAR-8 ovarian) of over 100 µM. It also gave a GI50 (PC-3 prostate) of 4.64 µM, a TGI (PC-3 prostate) of 18 µM and a GI50 (RPMI-8226 leukemia) of 7.98 µM. The TGI (RPMI-8226 leukemia) was 39.1 µM, the GI50 (RXF 393 renal) was 17.6 µM and the TGI (RXF 393 renal) was 45.8 µM. It also gave a GI50 (SF-268 CNS) of 17.2 µM, a TGI (SF-268 CNS) of 33 µM and a GI50 (SF-295 CNS) of 31.7 µM. It also gave a TGI (SF-295 CNS) of 70.3 µM, a GI50 (SF-539 CNS) of 18.6 µM and a TGI (SF-539 CNS) of 43.5 µM. It also gave a GI50 (SK-MEL-2 melanoma) of 25.7 µM, a TGI (SK-MEL-2 melanoma) of 62.1 µM and a GI50 (SK-MEL-28 melanoma) of 16.2 µM. The TGI (SK-MEL-28 melanoma) was 32 µM, the GI50 (SK-MEL-5 melanoma) was 14.9 µM and the TGI (SK-MEL-5 melanoma) was 40.1 µM. The GI50 (SN12C renal) was 13.6 µM, the TGI (SN12C renal) was 32.2 µM and the GI50 (SNB-19 CNS) was 5.41 µM. For the same compound, the TGI (SNB-19 CNS) was 19.6 µM, the GI50 (SNB-75 CNS) was 6.01 µM and the TGI (SNB-75 CNS) was 20.5 µM. For the same compound, the GI50 (SR leukemia) was 4.06 µM, the TGI (SR leukemia) was 17.1 µM and the GI50 (SW-620 colon) was 9.93 µM. The TGI (SW-620 colon) was 55.2 µM, the GI50 (T-47D breast) was 12.2 µM and the TGI (T-47D breast) was 29 µM. It also gave a GI50 (TK-10 renal) of 2.82 µM, a TGI (TK-10 renal) of 10.3 µM and a GI50 (UACC-257 melanoma) of 20.8 µM. It also gave a TGI (UACC-257 melanoma) of 42.7 µM, a GI50 (UACC-62 melanoma) of 14.9 µM and a TGI (UACC-62 melanoma) of 30.8 µM. For the same compound, the GI50 (UO-31 renal) was 10.2 µM and the TGI (UO-31 renal) was 27.3 µM.

From PubChem BioAssay (NCI)
